Measured values as given in ChEMBL document CHEMBL1123407, “Synthesis of a new chemically and metabolically stable prostacyclin analogue with high and long-lasting oral activity” (J Med Chem, 1986).
pIC50: −log10 of the molar value.

What was measured:
Homo sapiens [1] = species on record: Homo sapiens; test: In vitro inhibition of collagen (0.66 ug/mL)-induced platelet aggregation in human PRP; assay type: functional
Rattus norvegicus = species on record: Rattus norvegicus; test: In vitro inhibition of ADP (1.25 x 10E-6 M)-induced platelet aggregation in rat PRP (wistar); assay type: functional
Homo sapiens [2] = species on record: Homo sapiens; test: In vitro inhibition of ADP (0.5 x 10E-6 M)-induced platelet aggregation in human PRP
Homo sapiens [3] = species on record: Homo sapiens; test: In vitro inhibition of thrombin (0.1 IU/mL)-induced platelet aggregation in human PRP

| pIC50 (Homo sapiens [1]) | pIC50 (Rattus norvegicus) | pIC50 (Homo sapiens [2]) | pIC50 (Homo sapiens [3]) | SMILES |
| --- | --- | --- | --- | --- |
| 9.70 | 8.49 | 9.19 | 9.89 | CCC#CC[C@H](C)[C@H](O)C#CC1[C@H]2C/C(=C/COCC(=O)O)CC2C[C@H]1O (stereo not given in full) |
| – | 8.59 | 9.18 | – | CCCCC[C@H](O)/C=C/[C@@H]1[C@H]2C/C(=C/CCCC(=O)O)O[C@H]2C[C@H]1O [EPOPROSTENOL] |
| 9.41 | 7.94 | 9.09 | 9.41 | CC#CCC(C)[C@H](O)/C=C/[C@@H]1[C@H]2C/C(=C/CCCC(=O)O)C[C@H]2C[C@H]1O (stereo not given in full) [ILOPROST] |
